Test results taken from ChEMBL document CHEMBL3507680, “University of Dundee, Gates Library screen for HepG2 cell viability”.

Assay: Human HepG2 cell viability assay in 384 well format
Assay type: toxicity, cell-based
Design: dose 125 nL, time 70.5 hour; cytotoxicity at 70.5 h: concentration not given beside the values
Details: HepG2 cells, read-out: Inhibition

Row | Structure (SMILES) | cytotoxicity at 70.5 h [%]
1 | CCc1nc(C)sc1CN1CC[C@](O)(CC)[C@H](O)C1 | -6.34
2 | CCCN1CCC2(C1)c1ccccc1S(=O)(=O)N2C (configuration not stated) | -0.72
3 | CCOCC1CN(Cc2ccc3c(c2)OCO3)Cc2nccn2C1 (configuration not stated) | 0.869
4 | OC(c1ccccc1)c1cn(C2CCN(Cc3nccs3)CC2)nn1 (configuration not stated) | -11.3
5 | Cc1ccc(CN2CCC3(CCN(c4cnn(C)c4)C3=O)C2)s1 (configuration not stated) | 13.4
6 | Cn1cnc(-c2ccc(F)cc2)c1NC(=O)CCNC(=O)C(C)(C)C | -7.61
7 | Cc1nc2n(n1)CC(NCc1nc(-c3cccs3)no1)CC2 (configuration not stated) | 0.591
8 | CCCC(NC(=O)c1cc(C)ccc1C)c1nnn[nH]1 (configuration not stated) | 13.6
9 | CCCN1CCCn2nc(CNC(=O)CCc3scnc3C)cc2C1 | -1.73
10 | O=C(c1cccs1)N1CCc2nnc(COc3cncnc3)n2CC1 | 14.1
11 | CSCCCN1CCCC1c1noc(C)n1 (configuration not stated) | 1.11
12 | CC(C)c1ccc(O)c(C(=O)NCc2cc[nH]n2)c1 | 20.8
13 | Cc1cc2n(n1)[C@@H](C(F)(F)F)C[C@@H](C1CCCN(C(=O)C(C)C)C1)N2 (some centres not stated) | -3.95
14 | CN1CCC(Cc2noc(-c3cccc(Oc4ncccn4)c3)n2)CC1 | -2
15 | COCC(=O)N1C[C@@H](OCc2cccnc2)[C@H]2OCCC[C@@H]21 | 14.3
16 | Cn1c(SCc2noc(-c3ccsc3)n2)nnc1C1CCS(=O)(=O)C1 (configuration not stated) | -4.08
17 | CCOc1ncccc1NC(=O)N1CCN(c2ccc(O)cc2)CC1 | 1.58
18 | O=C1CC(N2CCN(c3ccc(F)cc3)CC2)C(=O)N1Cc1cccs1 (configuration not stated) | -12.3
19 | CCOc1ncccc1C(=O)N1CCCC(c2nccn2CCOC)C1 (configuration not stated) | -9.63

Row | Structure (SMILES) | cytotoxicity at 70.5 h [%]
20 | CC1c2ncc(COCC3CC3)n2CCN1S(=O)(=O)N(C)C (configuration not stated) | -1.15
21 | O=C(CN1CCN(CCO)CC1)NCCc1c(F)cccc1F | -1.38
22 | O=C(C1CC1)N1CCC(Nc2nc(O)cc(-c3ccsc3)n2)CC1 | -8.33
23 | Cc1nc(C2CCCN(C(=O)COCc3ccccc3Cl)C2)no1 (configuration not stated) | -7.76
24 | O=C1CCSCC(C(=O)N2CCOCC2)N1 (configuration not stated) | 0.753
25 | Cc1cc(NC(=O)Cc2ccc3c(c2)OCO3)n(C)n1 | -0.417
26 | CCn1ncnc1CN1CCc2[nH]cnc2C1CCc1ccccc1 (configuration not stated) | -4.41
27 | Cc1nc(CN2CCc3nn(C(C)C)c(=O)cc3C2)oc1C | 4.51
28 | N#Cc1cccc(CN2CC3(CCCCN3c3cccnc3)CC2=O)c1 (configuration not stated) | -1.1
29 | CC(C)(O)c1cn(C[C@H]2C[C@@H]3CCN2C[C@@H]3C(=O)N2CCOCC2)nn1 | -1.36
30 | Cn1cc(CNCC2(O)CCCCC2)c(-c2cccnc2)n1 | -4.88
31 | Cn1cc(S(=O)(=O)NCc2ccc(F)cc2)cn1 | -2.02
32 | Cc1ccc(CNC2CCN(CCc3ccncc3)CC2)cc1C | 1.32
33 | CCc1nnc(SCc2cc(=O)n3c4c(sc3n2)CCCC4)[nH]1 | -1.82
34 | CN(Cc1cncnc1)[C@@H]1CN(Cc2ccco2)C[C@@H]2CCCO[C@@H]21 | -14.6
35 | CNC(=O)C1CCCN(c2nc3c(-c4ccccc4)csc3c(=O)[nH]2)C1 (configuration not stated) | 4.92
36 | CN(C)[C@@H]1CCN(C(=O)NC2CCCC2)[C@H]1Cc1cnn(C)c1 | -15.8
37 | CNc1cncc(C2CCCN2C(=O)c2ccc3c(c2)OCCO3)n1 (configuration not stated) | 20.5
38 | Cc1cn2c(n1)CCC(NS(=O)(=O)c1cc(C)sc1C)C2 (configuration not stated) | -3.85

Row | Structure (SMILES) | cytotoxicity at 70.5 h [%]
39 | Nc1cc2c(nn1)CCN(C(=O)c1csc(-c3cccs3)n1)C2 | -6.75
40 | CC(=O)N1CCn2c(-c3cccc(F)c3)cnc2C12CCNCC2 | -7.49
41 | CCOCc1nc(N2CCCC2)sc1C(=O)NCc1ccco1 | -5.28
42 | CS(=O)(=O)N1CCO[C@H]2[C@@H](Oc3ncccc3F)CC[C@@H]21 | -5.41
43 | CN(C)S(=O)(=O)c1ccc2c(c1)N(Cc1nccn1C)CCC2 | -6.79
44 | Cn1ccc(CN2CCCC23CCN(Cc2nccn2C)CC3)n1 | -2.05
45 | CSc1ncc(C(=O)N2CCC(O)(CN3CCOCC3)C(C)(C)C2)cn1 (configuration not stated) | -0.923
46 | CC(O)CN1CCN(C(=O)CN(C)c2ccc(Cl)cn2)CC1 (configuration not stated) | -12.2
47 | Cn1cnnc1-c1cncc(NCc2cccc3c2OC(C)(C)C3)c1 | 8.22
48 | Cc1nn(CCC#N)c(C)c1CCC(=O)N(C)C | 13.3
49 | Cc1nc(CCNC(=O)NCC(O)c2cccc(Cl)c2)cs1 (configuration not stated) | -7.03
50 | CCOC(=O)c1ccc(NC(=O)c2cc3c([nH]c2=O)CCCC3)cc1 | -14.4
51 | Cc1ccsc1CN(Cc1ccccn1)CC(C)C | -6.06
52 | CCSc1ccc(C(C)NC(=O)CNS(C)(=O)=O)cc1 (configuration not stated) | -7.13
53 | Cc1nnc(SC2CCc3ccccc3NC2=O)o1 (configuration not stated) | -16.3
54 | O=C(C[C@H]1[C@H]2CN(Cc3ccncc3)C[C@@H]12)N1CCCC1 | 20.1
55 | CC(=O)N1CCCC(c2ccc(C(N)=O)cn2)C1 (configuration not stated) | -8.88
56 | COc1ccc2c(ccn2CCC(=O)O)c1 | 27.9
57 | CCN(CC)S(=O)(=O)c1ccc(C(=O)NC(C)(C)C)cc1 | 35.7
